Format in all cases: cell-based
In one test the target is T1, human TLR7 (Homo sapiens, UniProt Q9NYK1).
T1 construct: host or cells: HEK-Blue cells
T1 sequence (Q9NYK1 27-1049): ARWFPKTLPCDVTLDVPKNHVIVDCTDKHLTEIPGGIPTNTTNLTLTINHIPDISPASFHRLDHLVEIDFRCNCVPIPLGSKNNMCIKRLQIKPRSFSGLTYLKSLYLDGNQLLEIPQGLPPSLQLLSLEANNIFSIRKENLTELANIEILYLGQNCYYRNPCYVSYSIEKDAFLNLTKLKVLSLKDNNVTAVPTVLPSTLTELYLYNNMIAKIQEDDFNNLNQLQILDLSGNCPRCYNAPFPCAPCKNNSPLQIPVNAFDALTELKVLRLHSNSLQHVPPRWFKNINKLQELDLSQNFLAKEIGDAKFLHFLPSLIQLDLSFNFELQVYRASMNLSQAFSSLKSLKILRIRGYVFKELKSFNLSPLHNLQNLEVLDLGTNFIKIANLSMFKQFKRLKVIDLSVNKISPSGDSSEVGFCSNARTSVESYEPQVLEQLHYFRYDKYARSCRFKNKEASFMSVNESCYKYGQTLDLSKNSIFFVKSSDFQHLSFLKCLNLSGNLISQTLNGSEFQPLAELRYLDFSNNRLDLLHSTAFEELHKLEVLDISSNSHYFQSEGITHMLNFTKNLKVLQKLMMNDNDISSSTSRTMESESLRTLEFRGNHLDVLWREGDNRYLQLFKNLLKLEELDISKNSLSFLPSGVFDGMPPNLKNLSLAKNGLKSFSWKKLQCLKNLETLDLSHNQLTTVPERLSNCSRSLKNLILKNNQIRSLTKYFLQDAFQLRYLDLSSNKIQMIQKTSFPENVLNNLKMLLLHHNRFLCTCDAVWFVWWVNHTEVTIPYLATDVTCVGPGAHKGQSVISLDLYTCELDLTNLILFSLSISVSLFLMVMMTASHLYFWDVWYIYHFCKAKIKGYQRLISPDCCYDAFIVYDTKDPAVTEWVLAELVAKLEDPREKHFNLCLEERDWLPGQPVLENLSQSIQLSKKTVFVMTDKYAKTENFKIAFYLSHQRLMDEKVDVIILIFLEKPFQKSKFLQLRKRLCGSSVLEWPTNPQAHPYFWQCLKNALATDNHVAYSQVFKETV
The test is described as follows: TLR7 inhibition reporter assay (HEK-Blue cells, SEAP reporter, gardiquimod stimulation). Particulars: HEK-Blue cells overexpressing human TLR7, SEAP reporter, gardiquimod 7.5 μM; read-out: TLR7 IC50. The method, boiled down:
(§1)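 HEK-Blue cells overexpressing human TLR7, TLR8 or TLR9 carry a SEAP reporter driven by NF-κB/AP-1 sites. Compounds (0.05 nM–50 μM) were preincubated 30 min at room temperature, then cells were stimulated with gardiquimod 7.5 μM (TLR7), R848 15.9 μM (TLR8) or ODN2006 5 nM (TLR9) for 22 h at 37 °C.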
On the technique in general: In a reporter assay the amount or activity of a reporter protein is the signal.

In the next test the target is T2, human TLR8 (Homo sapiens, UniProt Q9NR97).
T2 construct: host or cells: HEK-Blue cells
T2 sequence (Q9NR97 27-1041): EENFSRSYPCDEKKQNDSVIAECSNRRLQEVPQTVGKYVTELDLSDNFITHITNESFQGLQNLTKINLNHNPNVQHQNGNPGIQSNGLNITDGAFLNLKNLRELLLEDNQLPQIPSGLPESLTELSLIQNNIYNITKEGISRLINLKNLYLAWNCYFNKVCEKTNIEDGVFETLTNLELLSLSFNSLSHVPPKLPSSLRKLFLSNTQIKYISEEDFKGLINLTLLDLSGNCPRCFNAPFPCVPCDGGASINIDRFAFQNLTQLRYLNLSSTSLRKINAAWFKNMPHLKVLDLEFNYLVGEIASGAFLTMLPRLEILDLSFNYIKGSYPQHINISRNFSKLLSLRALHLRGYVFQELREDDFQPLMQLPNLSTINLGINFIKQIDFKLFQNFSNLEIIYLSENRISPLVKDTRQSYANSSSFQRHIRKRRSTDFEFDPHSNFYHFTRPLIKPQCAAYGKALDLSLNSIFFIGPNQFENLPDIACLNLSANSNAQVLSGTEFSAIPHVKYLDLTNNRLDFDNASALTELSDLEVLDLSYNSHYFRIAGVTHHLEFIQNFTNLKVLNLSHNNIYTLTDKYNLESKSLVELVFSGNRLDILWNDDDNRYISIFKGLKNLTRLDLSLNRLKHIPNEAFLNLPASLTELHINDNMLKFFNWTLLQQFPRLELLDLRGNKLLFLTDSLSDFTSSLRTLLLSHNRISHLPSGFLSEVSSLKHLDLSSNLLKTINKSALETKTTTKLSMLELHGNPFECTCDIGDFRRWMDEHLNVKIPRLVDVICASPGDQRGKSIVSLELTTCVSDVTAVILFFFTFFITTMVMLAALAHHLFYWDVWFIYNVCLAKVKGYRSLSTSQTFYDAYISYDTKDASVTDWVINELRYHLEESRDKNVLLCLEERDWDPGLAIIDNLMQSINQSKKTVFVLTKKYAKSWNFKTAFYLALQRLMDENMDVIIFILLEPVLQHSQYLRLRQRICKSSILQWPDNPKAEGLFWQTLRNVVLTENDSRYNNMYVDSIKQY
The test is described as follows: TLR8 inhibition reporter assay (HEK-Blue cells, SEAP reporter, R848 stimulation). Particulars: HEK-Blue cells overexpressing human TLR8, SEAP reporter, R848 15.9 μM; read-out: TLR8 IC50. The method, boiled down: as §1

The target in the next test is T3, human TLR9 (Homo sapiens, UniProt Q9NR96).
T3 construct: host or cells: HEK-Blue cells
T3 sequence (Q9NR96 26-1032): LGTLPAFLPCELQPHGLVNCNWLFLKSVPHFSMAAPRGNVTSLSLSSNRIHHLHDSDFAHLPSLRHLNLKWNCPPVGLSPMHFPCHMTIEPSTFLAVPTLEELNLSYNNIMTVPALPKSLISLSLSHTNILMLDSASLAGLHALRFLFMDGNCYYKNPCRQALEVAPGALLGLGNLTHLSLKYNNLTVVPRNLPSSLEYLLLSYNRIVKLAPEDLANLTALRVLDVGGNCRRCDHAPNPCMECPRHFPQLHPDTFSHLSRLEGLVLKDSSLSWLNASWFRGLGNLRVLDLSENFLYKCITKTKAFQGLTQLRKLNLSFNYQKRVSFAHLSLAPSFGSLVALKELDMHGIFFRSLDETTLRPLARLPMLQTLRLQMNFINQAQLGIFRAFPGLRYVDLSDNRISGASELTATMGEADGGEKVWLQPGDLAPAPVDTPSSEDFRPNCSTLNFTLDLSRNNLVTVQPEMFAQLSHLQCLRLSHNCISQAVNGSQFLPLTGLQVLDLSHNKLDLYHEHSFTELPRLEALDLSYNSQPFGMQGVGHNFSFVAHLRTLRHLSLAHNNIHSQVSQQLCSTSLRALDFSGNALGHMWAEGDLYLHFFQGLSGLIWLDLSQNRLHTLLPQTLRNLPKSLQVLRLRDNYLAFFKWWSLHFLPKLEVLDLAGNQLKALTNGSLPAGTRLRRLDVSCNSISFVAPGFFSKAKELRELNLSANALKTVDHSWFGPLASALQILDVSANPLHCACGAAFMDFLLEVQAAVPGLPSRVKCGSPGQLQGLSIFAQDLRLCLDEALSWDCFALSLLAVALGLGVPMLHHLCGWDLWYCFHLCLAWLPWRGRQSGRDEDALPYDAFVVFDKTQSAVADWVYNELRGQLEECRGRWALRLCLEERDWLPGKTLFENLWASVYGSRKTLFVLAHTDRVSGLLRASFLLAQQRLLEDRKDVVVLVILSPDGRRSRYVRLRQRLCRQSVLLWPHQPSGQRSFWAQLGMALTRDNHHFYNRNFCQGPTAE
The test is described as follows: TLR9 inhibition reporter assay (HEK-Blue cells, SEAP reporter, ODN2006 stimulation). Particulars: HEK-Blue cells overexpressing human TLR9, SEAP reporter, ODN2006 5 nM. Put shortly: as §1

The record followed here is patent US20230139171A1 (SITA Information Networking Computing UK Limited, priority 2019, published 2023).

Structures are written as SMILES.

What is called IC50 is the midpoint of a concentration-inhibition curve.

Turning to `Cc1c(-c2[nH]c3sc(N4C[C@@H](C)N(C5CCC5)C[C@@H]4C)nc3c2C(C)C)cn2ncnc2c1C` [Example 333, 2-((2S,5R)-4-cyclobutyl-2,5-dimethylpiperazin-1-yl)-5-(7,8-dimethyl-[1,2,4]triazolo[1,5-a]pyridin-6-yl)-6-isopropyl-4H-pyrrolo[3,2-d]thiazole], the IC50 was 34.9 nM at human TLR7, 2.19 nM on human TLR8 and 37400 nM at human TLR9.

Take `COc1cc(-c2[nH]c3sc(C4CCC(N5CC[C@@H](NC(C)=O)C5)CC4)nc3c2C(C)C)cn2ncnc12` (single isomer, unassigned) [Example 100]: the IC50 at human TLR7 was found to be 78.9 nM; at human TLR8, 114 nM; at human TLR9, 6400 nM.

In the case of `Cc1cc2ncnn2cc1-c1[nH]c2sc(C3CCC(NC4COC4)CC3)nc2c1C(C)C` (single isomer, unassigned) [Example 152, N-(4-(6-isopropyl-5-(7-methyl-[1,2,4]triazolo[1,5-a]pyridin-6-yl)-4H-pyrrolo[3,2-d]thiazol-2-yl)cyclohexyl)oxetan-3-amine], the values for the IC50 on human TLR7, at human TLR8 and against human TLR9 were 13.7 nM, 31.6 nM and 20900 nM, respectively.

Turning to `Cc1c(-c2[nH]c3sc(C4CCNCC4)nc3c2C(C)C)cn2ncnc2c1C` [Example 41, 5-(7,8-dimethyl-[1,2,4]triazolo[1,5-a]pyridin-6-yl)-6-isopropyl-2-(piperidin-4-yl)-4H-pyrrolo[3,2-d]thiazole], the 50% inhibitory concentration (IC50) was found to be 1.19 nM on human TLR7, 2.66 nM at human TLR8 and 8430 nM on human TLR9.

On to `Cc1cc2ncnn2cc1-c1[nH]c2sc(C3CCC(NCC(C)(C)O)CC3)nc2c1C(C)C` (single isomer, unassigned) [Example 157, 1-((4-(6-isopropyl-5-(7-methyl-[1,2,4]triazolo[1,5-a]pyridin-6-yl)-4H-pyrrolo[3,2-d]thiazol-2-yl)cyclohexyl)amino)-2-methylpropan-2-ol], for which the figures for the IC50 at human TLR7, on human TLR8 and at human TLR9 were 37.4 nM, 11.9 nM and 16400 nM, respectively.

Consider `COc1cc(-c2[nH]c3sc(C4CCC(NS(C)(=O)=O)CC4)nc3c2C(C)C)cn2ncnc12` (stereo not drawn) [Example 127, N-(4-(6-isopropyl-5-(8-methoxy-[1,2,4]triazolo[1,5-a]pyridin-6-yl)-4H-pyrrolo[3,2-d]thiazol-2-yl)cyclohexyl)methanesulfonamide], for which the IC50 at human TLR7 is 1.99 nM; on human TLR8, 178 nM; against human TLR9, > 50000 nM.

For `COc1cc(-c2[nH]c3sc(C4CCC(N5CC(CO)(CO)C5)CC4)nc3c2C(C)C)cn2ncnc12` (single isomer, unassigned) [Example 67, (1-(4-(6-isopropyl-5-(8-methoxy-[1,2,4]triazolo[1,5-a]pyridin-6-yl)-4H-pyrrolo[3,2-d]thiazol-2-yl)cyclohexyl)azetidine-3,3-diyl)dimethanol], the figures for the IC50 at human TLR7, at human TLR8 and at human TLR9 were 12.6 nM, 12.9 nM and 2250 nM, respectively.

`Cc1c(-c2[nH]c3sc(C4CCC(NCC(C)(C)O)CC4)nc3c2C(C)C)cn(C)c(=O)c1C` (single isomer, unassigned) [Example 252, 5-(2-(4-((2-hydroxy-2-methylpropyl)amino)cyclohexyl)-6-isopropyl-4H-pyrrolo[3,2-d]thiazol-5-yl)-1,3,4-trimethylpyridin-2(1H)-one]: the results for the IC50 at human TLR7, at human TLR8 and on human TLR9 were 67.9 nM, 35.8 nM and > 50000 nM, respectively.

Regarding `COc1cc(-c2[nH]c3sc(C4CCC(N5[C@@H]6CC[C@H]5COC6)CC4)nc3c2C(C)C)cn2ncnc12` (single isomer, unassigned) [Example 104], the figures for the IC50 on human TLR7, on human TLR8 and at human TLR9 were 1.98 nM, 2.81 nM and 5600 nM, respectively.

Consider `Cc1c(-c2[nH]c3sc(C4CCN(C5CCOCC5)CC4)nc3c2C(C)C)cn2ncnc2c1C` [Example 46, 5-(7,8-dimethyl-[1,2,4]triazolo[1,5-a]pyridin-6-yl)-6-isopropyl-2-(1-(tetrahydro-2H-pyran-4-yl)piperidin-4-yl)-4H-pyrrolo[3,2-d]thiazole], for which the IC50 was determined as 0.57 nM at human TLR7, 0.11 nM at human TLR8 and 2500 nM against human TLR9.

In the case of `Cc1c(-c2[nH]c3sc(C4CCC(NC5CCS(=O)(=O)C5)CC4)nc3c2C(C)C)cn2ncnc2c1C` (single isomer, unassigned) [Example 232, 3-((4-(5-(7,8-dimethyl-[1,2,4]triazolo[1,5-a]pyridin-6-yl)-6-isopropyl-4H-pyrrolo[3,2-d]thiazol-2-yl)cyclohexyl)amino)tetrahydrothiophene 1,1-dioxide], the IC50 was 4.19 nM at human TLR7, 7.87 nM at human TLR8 and > 50000 nM at human TLR9.
